Tested on: hypertriglyceridemic patients with cardiovascular disease or at high risk for cardiovascular disease
Assay: REDUCE-IT: bleeding-related adverse events (serious and any, by category, preferred term, antithrombotic medication, fatal association)
Type: in vivo
Text: Adverse Events of Special Interest: Bleeding-related adverse events, glucose control (fasting blood glucose and HbA1c), and indicators of hepatic disorders (e.g., ALT or AST increases >3×ULN, total bilirubin increases of ≥2×ULN) were summarized separately and compared between treatment groups.
Due to the convergence of clinical events shortly before a patient's death, direct causality of an individual bleeding event with death cannot always be determined. Bleeding-related clinical events (i.e., TEAEs, SAEs, or positively adjudicated endpoints) that occurred proximal to death (per site Investigator, CEC, or Sponsor medical assessment) are presented in Table 82 and occurred in 23 (0.6%) patients in the AMR101 group and 34 (0.8%) patients in the placebo group, with no statistically significant difference between treatment groups (p=0.18). Sponsor medical assessment classified 20 (0.5%) patients in the AMR101 group and 23 (0.6%) patients in the placebo group as having a bleeding event that likely contributed to death, with no statistically significant difference between treatment groups (p=0.76). […] None of these 57 deaths were associated with study drug per Investigator assessment; one bleeding event in each treatment group was considered possibly related to study drug per Investigator assessment.
A summary of baseline or on-treatment anti-thrombic medication use by type in patients with serious bleeding events for the ITT population is provided in Tables 97A-97D.

In the case of `CC/C=C\C/C=C\C/C=C\C/C=C\C/C=C\CCCC(=O)OCC` [AMR101, eicosapentaenoic acid ethyl ester], the “Bleeding event that did not likely contribute to death (Sponsor medical assessment), patients” value (Safety population) is reported as 3 (0.1%) n (%), the “Bleeding event that likely contributed to death (Sponsor medical assessment), patients” value (Safety population) is reported as 20 (0.5%) n (%) and the “Bleeding-related clinical events that occurred proximal to death, patients” value (Safety population) is reported as 23 (0.6%) n (%). The Fatal bleeding events (Safety population) was “no fatal bleeding events”, the “Bleeding Not Likely Contributing to a Fatal Event, %” value (Safety population N = 4089, P-value 0.06) was “(0.1) %” and the “Any Bleeding with a Possible Fatal Association, %” value (Safety population N = 4089, P-value 0.18) was “(0.6) %”. The “Bleeding Likely Contributing to a Fatal Event, %” value (Safety population N = 4089, P-value 0.76) was “(0.5) %”, the Fatal bleeding events (Safety population, listed as icosapent ethyl) was “no fatal bleeding observed in either group” and the “Bleeding TEAEs, %” value (human, in vivo) was “(11.8) %”. For the same molecule, the “Bleeding-related disorders (bleeding TEAEs), patients” value (human, in vivo) was 11.8%, the “Patients with any serious bleeding TEAE, % patients” value (human, in vivo) was “(2.7) %” and the “Patients with any serious bleeding TEAE, n patients” value (human, in vivo) was 111. The “Patients with serious CNS bleeding, % patients” value (human, in vivo) was “(0.3) %”, the “Patients with serious CNS bleeding, n patients” value (human, in vivo) was 14 and the “Patients with serious Gl bleeding, % patients” value (human, in vivo) was “(1.5) %”. The “Patients with serious Gl bleeding, n patients” value (human, in vivo) was 62, the “Patients with serious other bleeding, % patients” value (human, in vivo) was “(1.0) %” and the “Patients with serious other bleeding, n patients” value (human, in vivo) was 41. For the same molecule, the “Serious GI hemorrhage, patients” value (human, in vivo) was 0.6%, the “Serious bleeding TEAE: Aortic Aneurysm Rupture” value (human, in vivo) was 1 (0.0%) n (%) and the “Serious bleeding TEAE: Bleeding related disorders” value (human, in vivo) was 111 (2.7%) n (%). The “Serious bleeding TEAE: Brain Contusion” value (human, in vivo) was 0 (0.0%) n (%), the “Serious bleeding TEAE: Catheter Site Hemorrhage” value (human, in vivo) was 0 (0.0%) n (%) and the “Serious bleeding TEAE: Central nervous system bleeding” value (human, in vivo) was 14 (0.3%) n (%). The “Serious bleeding TEAE: Cerebral Hemorrhage” value (human, in vivo) was 0 (0.0%) n (%), the “Serious bleeding TEAE: Cystitis Hemorrhagic” value (human, in vivo) was 2 (0.0%) n (%) and the “Serious bleeding TEAE: Diverticulitis Intestinal Hemorrhagic” value (human, in vivo) was 0 (0.0%) n (%). The “Serious bleeding TEAE: Diverticulum Intestinal Hemorrhagic” value (human, in vivo) was 3 (0.1%) n (%), the “Serious bleeding TEAE: Duodenal Ulcer Hemorrhage” value (human, in vivo) was 2 (0.0%) n (%) and the “Serious bleeding TEAE: Ecchymosis” value (human, in vivo) was 1 (0.0%) n (%). The “Serious bleeding TEAE: Epistaxis” value (human, in vivo) was 7 (0.2%) n (%), the “Serious bleeding TEAE: Esophageal Hemorrhage” value (human, in vivo) was 0 (0.0%) n (%) and the “Serious bleeding TEAE: Extravasation Blood” value (human, in vivo) was 1 (0.0%) n (%). For the same molecule, the “Serious bleeding TEAE: Gastric Hemorrhage” value (human, in vivo) was 1 (0.0%) n (%), the “Serious bleeding TEAE: Gastric Ulcer Hemorrhage” value (human, in vivo) was 3 (0.1%) n (%) and the “Serious bleeding TEAE: Gastrointestinal Angiodysplasia Hemorrhagic” value (human, in vivo) was 1 (0.0%) n (%). For the same molecule, the “Serious bleeding TEAE: Gastrointestinal bleeding” value (human, in vivo) was 62 (1.5%) n (%), the “Serious bleeding TEAE: Genital Hemorrhage” value (human, in vivo) was 1 (0.0%) n (%) and the “Serious bleeding TEAE: Hemarthrosis” value (human, in vivo) was 0 (0.0%) n (%). For the same molecule, the “Serious bleeding TEAE: Hematemesis” value (human, in vivo) was 3 (0.1%) n (%), the “Serious bleeding TEAE: Hematochezia” value (human, in vivo) was 1 (0.0%) n (%) and the “Serious bleeding TEAE: Hematoma” value (human, in vivo) was 1 (0.0%) n (%). The “Serious bleeding TEAE: Hemoptysis” value (human, in vivo) was 1 (0.0%) n (%), the “Serious bleeding TEAE: Hemorrhagic Anemia” value (human, in vivo) was 4 (0.1%) n (%) and the “Serious bleeding TEAE: Hemorrhagic Duodenitis” value (human, in vivo) was 0 (0.0%) n (%). The “Serious bleeding TEAE: Hemorrhagic Transformation Stroke” value (human, in vivo) was 1 (0.0%) n (%), the “Serious bleeding TEAE: Hemorrhoidal Hemorrhage” value (human, in vivo) was 3 (0.1%) n (%) and the “Serious bleeding TEAE: Hemothorax” value (human, in vivo) was 1 (0.0%) n (%). For the same molecule, the “Serious bleeding TEAE: Immune Thrombocytopenic Purpura” value (human, in vivo) was 0 (0.0%) n (%), the “Serious bleeding TEAE: Intra-Abdominal Hemorrhage” value (human, in vivo) was 1 (0.0%) n (%) and the “Serious bleeding TEAE: Intracranial Hemorrhage” value (human, in vivo) was 0 (0.0%) n (%). The “Serious bleeding TEAE: Large Intestinal Hemorrhage” value (human, in vivo) was 1 (0.0%) n (%), the “Serious bleeding TEAE: Lower Gastrointestinal Hemorrhage” value (human, in vivo) was 5 (0.1%) n (%) and the “Serious bleeding TEAE: Mallory-Weiss Syndrome” value (human, in vivo) was 1 (0.0%) n (%). The “Serious bleeding TEAE: Melaena” value (human, in vivo) was 3 (0.1%) n (%), the “Serious bleeding TEAE: Menorrhagia” value (human, in vivo) was 1 (0.0%) n (%) and the “Serious bleeding TEAE: Mouth Hemorrhage” value (human, in vivo) was 0 (0.0%) n (%). The “Serious bleeding TEAE: Other bleeding” value (human, in vivo) was 41 (1.0%) n (%), the “Serious bleeding TEAE: Pancreatitis Hemorrhagic” value (human, in vivo) was 1 (0.0%) n (%) and the “Serious bleeding TEAE: Peptic Ulcer Hemorrhage” value (human, in vivo) was 1 (0.0%) n (%). For the same molecule, the “Serious bleeding TEAE: Pericardial Hemorrhage” value (human, in vivo) was 0 (0.0%) n (%), the “Serious bleeding TEAE: Post Procedural Hematoma” value (human, in vivo) was 1 (0.0%) n (%) and the “Serious bleeding TEAE: Post Procedural Hematuria” value (human, in vivo) was 0 (0.0%) n (%). For the same molecule, the “Serious bleeding TEAE: Post Procedural Hemorrhage” value (human, in vivo) was 5 (0.1%) n (%), the “Serious bleeding TEAE: Renal Hemorrhage” value (human, in vivo) was 0 (0.0%) n (%) and the “Serious bleeding TEAE: Retinal Hemorrhage” value (human, in vivo) was 1 (0.0%) n (%). For the same molecule, the “Serious bleeding TEAE: Retroperitoneal Hematoma” value (human, in vivo) was 0 (0.0%) n (%), the “Serious bleeding TEAE: Retroperitoneal Hemorrhage” value (human, in vivo) was 1 (0.0%) n (%) and the “Serious bleeding TEAE: Shock Hemorrhagic” value (human, in vivo) was 2 (0.0%) n (%). For the same molecule, the “Serious bleeding TEAE: Subarachnoid Hemorrhage” value (human, in vivo) was 2 (0.0%) n (%), the “Serious bleeding TEAE: Subdural Hemorrhage” value (human, in vivo) was 2 (0.0%) n (%) and the “Serious bleeding TEAE: Traumatic Hematoma” value (human, in vivo) was 2 (0.0%) n (%). For the same molecule, the “Serious bleeding TEAE: Traumatic Intracranial Hemorrhage” value (human, in vivo) was 0 (0.0%) n (%), the “Serious bleeding TEAE: Ulcer Hemorrhage” value (human, in vivo) was 1 (0.0%) n (%) and the “Serious bleeding TEAE: Upper Gastrointestinal Hemorrhage” value (human, in vivo) was 3 (0.1%) n (%). The “Serious bleeding TEAE: Urinary Bladder Hemorrhage” value (human, in vivo) was 1 (0.0%) n (%), the “Serious bleeding TEAEs, %” value (human, in vivo) was “(2.7) %” and the “Serious bleeding TEAEs, patients” value (human, in vivo) was 2.7%. The “Serious bleeding adverse event - Epistaxis, % patients” value (human, in vivo) was “(0.2) %”, the “Serious bleeding adverse event - Epistaxis, n patients” value (human, in vivo) was 7 and the “Serious bleeding adverse event - Gl hemorrhage, % patients” value (human, in vivo) was “(0.6) %”. The “Serious bleeding adverse event - Gl hemorrhage, n patients” value (human, in vivo) was 26, the “Serious bleeding adverse event - Hematuria, % patients” value (human, in vivo) was “(0.2) %” and the “Serious bleeding adverse event - Hematuria, n patients” value (human, in vivo) was 8. The “Serious bleeding adverse event - Rectal hemorrhage, % patients” value (human, in vivo) was “(0.2) %”, the “Serious bleeding adverse event - Rectal hemorrhage, n patients” value (human, in vivo) was 10 and the “Serious bleeding adverse event - Subdural hematoma, % patients” value (human, in vivo) was “(0.2) %”. The “Serious bleeding adverse event - Subdural hematoma, n patients” value (human, in vivo) was 9, the “Serious central nervous system bleeding, patients” value (human, in vivo) was 0.3% and the “Serious gastrointestinal bleeding, patients” value (human, in vivo) was 1.5%. The “TEAE of special interest: Bleeding-related disorders, %” value (human, in vivo) was “(11.8) %”, the “TEAE of special interest: Central nervous system bleeding, %” value (human, in vivo) was “(0.5) %” and the “TEAE of special interest: Gastrointestinal bleeding, %” value (human, in vivo) was “(3.1) %”. For the same molecule, the “TEAE of special interest: Other bleeding, %” value (human, in vivo) was “(9.2) %”, the “Serious bleeding TEAE: Gastrointestinal Hemorrhage” value (human, in vivo, 4.9 years) was 26 (0.6%) n (%) and the “Serious bleeding TEAE: Hematuria” value (human, in vivo, 4.9 years) was 8 (0.2%) n (%). The “Serious bleeding TEAE: Rectal Hemorrhage” value (human, in vivo, 4.9 years) was 10 (0.2%) n (%), the “Serious bleeding TEAE: Subdural Hematoma” value (human, in vivo, 4.9 years) was 9 (0.2%) n (%) and the “Patients with any bleeding/at risk” value (on treatment: Clopidogrel, ITT) was 124/951.
